Reference: patent US20250304644A1, “PEPTIDES TRIPLE AGONISTS OF GIP, GLP-1 AND GLP-2” (BAINAN BIOTECH APS, priority 2021, published 2025)
Where a SMILES comes first, the peptide text is derived from it. [ ]: non-standard residue; d: D form. The star is where a group is joined. Decanoyl = CCCCCCCCCC(=O)*; Aib = CC(C)(N)C(=O)O

Assays:
human GIPR = molecular target: T1, human GIPR (Homo sapiens, UniProt P48546); test: cAMP assay (HitHunter) in transiently transfected COS-7 cells expressing human GIPR; type: cell-based; settings: for Emax: COS-7, normalized to highest concentration of the endogenous ligand, read-out: Efficacy GIPR (Emax); for EC50: cAMP, COS-7 cells, human GIPR
T1 construct: host or cells: COS-7
T1 sequence (P48546 22-466): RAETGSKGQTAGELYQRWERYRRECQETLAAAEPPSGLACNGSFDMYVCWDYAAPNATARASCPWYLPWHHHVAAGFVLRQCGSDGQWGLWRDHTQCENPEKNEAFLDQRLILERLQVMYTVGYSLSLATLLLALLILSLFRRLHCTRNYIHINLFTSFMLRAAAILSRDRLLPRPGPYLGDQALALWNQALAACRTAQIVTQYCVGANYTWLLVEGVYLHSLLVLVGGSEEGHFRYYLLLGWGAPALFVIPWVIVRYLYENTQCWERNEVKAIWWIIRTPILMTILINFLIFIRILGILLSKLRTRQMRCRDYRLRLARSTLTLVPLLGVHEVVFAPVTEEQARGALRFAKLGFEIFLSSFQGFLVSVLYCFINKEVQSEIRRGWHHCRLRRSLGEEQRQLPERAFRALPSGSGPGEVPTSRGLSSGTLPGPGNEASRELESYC
Description: (§1) The next day the assay was initiated by washing with HEPES buffered saline (HBS) and followed by an incubation step with assay buffer (HBS added 1 mM isobutyl-1-methylxanthine (IBMX)) for 30 min at 37° C. The ligands were then added and incubated for an additional 30 min at 37° C. After ligand incubation, the HitHunter® CAMP assay (Eurofins DiscoverX, Fremont, […] USA) was carried out according to the manufacturer's instructions. […] The potencies (EC50 values) were determined by nonlinear regression using GraphPad Prism 9 (San Diego, California, USA). Sigmoid curves were fitted logistically. The efficacies (Emax values) were determined by normalization to the highest concentration applied of the endogenous ligand for each receptor.

human GLP-1R = molecular target: T2, human GLP-1R (Homo sapiens, UniProt P43220); test: cAMP assay (HitHunter) in transiently transfected COS-7 cells expressing human GLP-1R; type: cell-based; settings: COS-7; normalized to highest concentration of the endogenous ligand; read-out: Efficacy GLP-1R (Emax)
T2 construct: host or cells: COS-7
Description: as §1

T2 sequence (P43220 24-463): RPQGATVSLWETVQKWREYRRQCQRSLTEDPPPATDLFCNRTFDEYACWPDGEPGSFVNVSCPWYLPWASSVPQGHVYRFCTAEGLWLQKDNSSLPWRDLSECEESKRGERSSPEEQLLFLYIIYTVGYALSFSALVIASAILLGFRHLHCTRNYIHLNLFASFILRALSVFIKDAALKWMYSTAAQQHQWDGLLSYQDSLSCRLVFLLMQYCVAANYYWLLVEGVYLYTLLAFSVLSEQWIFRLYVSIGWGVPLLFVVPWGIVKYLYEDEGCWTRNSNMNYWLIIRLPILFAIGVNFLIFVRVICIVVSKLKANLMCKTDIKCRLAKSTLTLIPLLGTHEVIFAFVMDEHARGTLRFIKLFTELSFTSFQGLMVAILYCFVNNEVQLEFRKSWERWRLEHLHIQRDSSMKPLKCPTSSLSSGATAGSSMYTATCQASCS

Row | SMILES | Emax (human GIPR) [%] | EC50 (human GIPR) [nM] | Emax (human GLP-1R) [%]
1 | CCCCCCCCCC(=O)NCCCC[C@H](NC(=O)[C@@H](NC(=O)[C@@H](NC(=O)[C@H](CCCCN)NC(=O)[C@@H](NC(=O)[C@H](CCC(N)=O)NC(=O)[C@@H](NC(=O)[C@H](CC(C)C)NC(=O)[C@H](Cc1c[nH]c2ccccc12)NC(=O)[C@H](CC(N)=O)NC(=O)[C@@H](NC(=O)[C@H](Cc1ccccc1)NC(=O)[C@H](CCC(=O)O)NC(=O)[C@H](CCCNC(=N)N)NC(=O)[C@H](C)NC(=O)[C@H](C)NC(=O)[C@H](CC(C)C)NC(=O)[C@H](CC(N)=O)NC(=O)[C@H](CC(=O)O)NC(=O)[C@H](CC(C)C)NC(=O)[C@@H](NC(=O)[C@@H](NC(=O)[C@H](CO)NC(=O)[C@H](Cc1ccc(O)cc1)NC(=O)[C@H](CC(=O)O)NC(=O)[C@H](CO)NC(=O)[C@@H](NC(=O)[C@H](Cc1ccccc1)NC(=O)[C@@H](NC(=O)CNC(=O)[C@H](CC(=O)O)NC(=O)C(C)(C)NC(=O)[C@@H](N)Cc1c[nH]cn1)[C@@H](C)O)[C@@H](C)CC)[C@@H](C)O)[C@@H](C)CC)[C@@H](C)CC)[C@@H](C)CC)[C@@H](C)O)[C@@H](C)CC)[C@@H](C)O)C(N)=O [Compound 8] (H-H[Aib]DGTFISDYSTILDNLAAREFINWLIQTKITK(Decanoyl)-NH2; N-terminus assumed) | 99 | 1.12 | 98
2 | CCCCCCCCCC(=O)NCCCC[C@H](NC(=O)[C@@H](NC(=O)[C@@H](NC(=O)[C@H](CCCCN)NC(=O)[C@@H](NC(=O)[C@H](CCC(N)=O)NC(=O)[C@@H](NC(=O)[C@H](CC(C)C)NC(=O)[C@H](Cc1c[nH]c2ccccc12)NC(=O)[C@H](CC(N)=O)NC(=O)[C@@H](NC(=O)[C@H](Cc1ccccc1)NC(=O)[C@H](CC(=O)O)NC(=O)[C@H](CCCNC(=N)N)NC(=O)[C@H](C)NC(=O)[C@H](C)NC(=O)[C@@H](NC(=O)[C@H](CC(N)=O)NC(=O)[C@H](CC(=O)O)NC(=O)[C@H](CC(C)C)NC(=O)[C@@H](NC(=O)[C@@H](NC(=O)[C@H](CO)NC(=O)[C@H](Cc1ccc(O)cc1)NC(=O)[C@H](CC(=O)O)NC(=O)[C@H](CO)NC(=O)[C@@H](NC(=O)[C@H](Cc1ccccc1)NC(=O)[C@@H](NC(=O)CNC(=O)[C@H](CC(=O)O)NC(=O)C(C)(C)NC(=O)[C@@H](N)Cc1c[nH]cn1)[C@@H](C)O)[C@@H](C)CC)[C@@H](C)O)[C@@H](C)CC)[C@@H](C)CC)[C@@H](C)CC)[C@@H](C)CC)[C@@H](C)O)[C@@H](C)CC)[C@@H](C)O)C(N)=O [Compound 15] (H-H[Aib]DGTFISDYSTILDNIAARDFINWLIQTKITK(Decanoyl)-NH2; N-terminus assumed) | 98 | 0.794 | 90
